Data on 1 compound can be found in PMC11117716 (Biomolecules, 2024).

One series can be described thus: LogD. The format is physicochemical.
A short description of series [1]: Population pharmacokinetic analysis (Nonmem) in healthy volunteers and Alzheimer's and Parkinson's patients. Format: in vivo, human. The conditions noted are these: popPK. The protocol: Population pharmacokinetic analysis was conducted using data from healthy volunteers from Study 101 (single ascending dose study with 72 subjects) and Study 102 (multiple dose study with 48 volunteers) and in patients (multiple dose study in 68 patients with early Alzheimer’s or early Parkinson’s disease). Data were fit using a Bayesian approach as implemented in the software package Nonmem® (version 7.5.1, Icon Development Solutions, Dublin, Ireland). Standard model building approaches were used. After a base model was established, covariates were evaluated singly and assessed graphically using eta plots—The full model consisted of all statistically significant covariates identified during the single covariate evaluation phase, and back elimination was conducted. Each covariate was removed from the full model, and the impact of that removal was assessed based on model output. The final model performance was assessed graphically and using simulation with a visual predictive check (VPC). […]
The asymptotic standard errors (SEs) and nonparamet ric bootstrapped confidence intervals (CIs) estimated the parameter precision. Other model statistics were evaluated, such as etabar and associated p values. […]
substantial skewness or kurtosis; therefore, transforms were not evaluated. […]
Plasma concentration data were evaluated using an LTBS approach. […]

For another series, the system named is acetylcholinesterase. The note with it: cited from earlier work.
Series [2] has as its system neurotoxic aggregating proteins. The note with it: cited from earlier work.

Take `CN1CC[C@]2(C)c3cc(OC(=O)Nc4ccccc4)ccc3N(C)C12.O=C(O)C(O)C(O)C(=O)O` (stereo partly drawn) [Posiphen, (3aR)-1,3a, 8-trimethyl-1,2,3,3a, 8,8a-hexahydropyrrolo (2,3-b) indol-5-yl phenylcarbamate tartrate]: in “LogD”, the log distribution coefficient (logD) (commonly lipophilicity at a set pH, counting ionised and neutral species) worked out at 2.2. Also, the Michaelis-Menten constant (Km) – broadly, the substrate concentration at which the rate is half of its maximum – in series [1] (human, plasma, oral, as dose increased from 0.04 to 2.4 mg/kg, read-out: Michaelis constant (km)) lay in the range of 0.01 to 0.015 µg/mL. In addition, the “Variability in absorption, metabolism and clearance between healthy subjects and Alzheimer's or Parkinson's patients” value in series [1] is recorded as “no variability”. For the same compound, the “Acetylcholinesterase inhibitory (AChEI) activity” value with acetylcholinesterase is “no acetylcholinesterase inhibitory (AChEI) activity”. Also, the TINAP activity entry in series [2] is given as “have TINAP”.
